# Tests used:
# PD-1/PD-L1 interaction = biological target: T1, PD-1/PD-L1 interaction (Homo sapiens, UniProt Q9NZQ7); assay: PD-1/PD-L1 blockage cell-based bioassay (Jurkat NFAT luciferase / CHO-PDL1 co-culture); conditions: Jurkat NFAT cells co-cultured with CHO-PDL1 cells, 6 h, luminescence
# T1 construct: expressed in transfected cells
# [1] = biological target: interaction between PD-1 and PD-L1 (Homo sapiens, UniProt Q9NZQ7); assay: PD-1/PD-L1 protein-protein interaction assay (ALPHA); assay type: binding; conditions: 2 nM His-tagged human PD-L1, 0.6 nM PD-1-Fc, AlphaScreen
# interaction between PD-1 and PD-L1, sequence (Q9NZQ7 19-238 limits assumed): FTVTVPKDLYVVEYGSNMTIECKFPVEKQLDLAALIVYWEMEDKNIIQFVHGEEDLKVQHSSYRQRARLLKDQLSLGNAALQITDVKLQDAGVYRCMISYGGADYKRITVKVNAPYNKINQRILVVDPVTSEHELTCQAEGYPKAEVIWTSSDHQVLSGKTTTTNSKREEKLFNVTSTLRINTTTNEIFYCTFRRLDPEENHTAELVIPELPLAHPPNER
# T1 sequence (Q9NZQ7 19-290): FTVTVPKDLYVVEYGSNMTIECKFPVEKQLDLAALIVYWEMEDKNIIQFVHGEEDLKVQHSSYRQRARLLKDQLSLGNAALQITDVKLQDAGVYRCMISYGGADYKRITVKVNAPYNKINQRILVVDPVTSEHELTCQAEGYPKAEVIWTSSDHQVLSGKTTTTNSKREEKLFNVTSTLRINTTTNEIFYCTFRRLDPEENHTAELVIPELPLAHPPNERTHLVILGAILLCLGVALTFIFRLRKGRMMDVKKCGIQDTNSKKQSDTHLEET
IC50 (PD-1/PD-L1 interaction) [nM],IC50 [1] [nM],Structure (SMILES)
> 2000,1 to 10,"COc1cc(-n2ccc3c(-c4cccc5c4ccn5-c4cc(OC)c(CNC[C@@H]5CCC(=O)N5)c(OC)c4)cccc32)cc(OC)c1CNC[C@@H]1CCC(=O)N1 [Example 64, (5S,5′S)-5,5′-((((1H,1′H-[4,4′-biindole]-1,1′-diylbis(2,6-dimethoxy-4,1-phenylene))bis(methylene))bis(azanediyl))bis(methylene))bis(pyrrolidin-2-one)]"
< 200,< 1,"COc1cc(-n2ncc3c(-c4cccc(-c5ccc(C6=NCCN6)c(OC)n5)c4Cl)cccc32)cc(OC)c1CN1CC2(CNC(=O)C2)C1 [Example 76, 2-(4-(4-(2-chloro-3-(5-(4,5-dihydro-1H-imidazol-2-yl)-6-methoxypyridin-2-yl)phenyl)-1H-indazol-1-yl)-2,6-dimethoxybenzyl)-2,6-diazaspiro[3.4]octan-7-one]"
< 200,< 1,"COc1cc(-n2ncc3c(-c4cccc(-c5ccc(CN6CC7(CNC(=O)C7)C6)c(OC)n5)c4Cl)cccc32)cc(OC)c1CN1CC(C)(O)C1 [Example 79, 2-((6-(2-chloro-3-(1-(4-((3-hydroxy-3-methylazetidin-1-yl)methyl)-3,5-dimethoxyphenyl)-1H-indazol-4-yl)phenyl)-2-methoxypyridin-3-yl)methyl)-2,6-diazaspiro[3.4]octan-7-one]"
201 to 2000,1 to 10,"COc1cc(-n2ccc3c(-c4cccc(-c5ccc(CNC[C@@H]6CCC(=O)N6)c(OC)n5)c4Cl)cccc32)cc(OC)c1CN1CC[C@H](O)C1 [Example 83, (S)-5-((((6-(2-chloro-3-(1-(4-(((S)-3-hydroxypyrrolidin-1-yl)methyl)-3,5-dimethoxyphenyl)-1H-indol-4-yl)phenyl)-2-methoxypyridin-3-yl)methyl)amino)methyl)pyrrolidin-2-one]"
201 to 2000,1 to 10,"COc1cc(-n2ncc3c(-c4cccc(-c5ccc(CN6CC7(CNC(=O)C7)C6)c(OC)n5)c4Cl)cccc32)cc(OC)c1CNC[C@H]1C[C@@H](O)C1 [Example 91, 2-((6-(2-chloro-3-(1-(4-(((((cis)-3-hydroxycyclobutyl)methyl)amino)methyl)-3,5-dimethoxyphenyl)-1H-indazol-4-yl)phenyl)-2-methoxypyridin-3-yl)methyl)-2,6-diazaspiro[3.4]octan-7-one]"
> 2000,1 to 10,"COc1cc(-c2cn(C)c3c(-c4cccc(-c5ccc(CNC[C@@H]6CCC(=O)N6)c(OC)n5)c4Cl)cccc23)cc(OC)c1CNC[C@@H]1CCC(=O)N1 [Example 93, (S)-5-((((6-(2-chloro-3-(3-(3,5-dimethoxy-4-(((((S)-5-oxopyrrolidin-2-yl)methyl)amino)methyl)phenyl)-1-methyl-1H-indol-7-yl)phenyl)-2-methoxypyridin-3-yl)methyl)amino)methyl)pyrrolidin-2-one]"

# The remaining lines, values behind:
Structure (SMILES),IC50 (PD-1/PD-L1 interaction) [nM],IC50 [1] [nM]
"COc1cc(-n2ccc3c(-c4cccc(-c5cnc(CNC[C@@H]6CCC(=O)N6)c(OC)n5)c4Cl)cccc32)cc(OC)c1CNC[C@@H]1CCC(=O)N1 [Example 65, (S)-5-((((5-(2-chloro-3-(1-(3,5-dimethoxy-4-(((((S)-5-oxopyrrolidin-2-yl)methyl)amino)methyl)phenyl)-1H-indol-4-yl)phenyl)-3-methoxypyrazin-2-yl)methyl)amino)methyl)pyrrolidin-2-one]",201 to 2000,1 to 10
"COc1cc(-n2ncc3c(-c4cccc(-c5ccc(CNC[C@@H]6CCC(=O)N6)c(OC)n5)c4Cl)cccc32)cc(OC)c1CNCC1(C(=O)O)CC1 [Example 66, (S)-1-(((4-(4-(2-chloro-3-(6-methoxy-5-((((5-oxopyrrolidin-2-yl)methyl)amino)methyl)pyridin-2-yl)phenyl)-1H-indazol-1-yl)-2,6-dimethoxybenzyl)amino)methyl)cyclopropanecarboxylic acid]",< 200,< 1
"COc1cc(-n2ccc3c(-c4cccc(NC(=O)c5nc6c(s5)CN(C)CC6)c4C)cccc32)cc(OC)c1CNC[C@@H]1CCC(=O)N1 [Example 67, (S)—N-(3-(1-(3,5-dimethoxy-4-((((5-oxopyrrolidin-2-yl)methyl)amino)methyl)phenyl)-1H-indol-4-yl)-2-methylphenyl)-5-methyl-4,5,6,7-tetrahydrothiazolo[5,4-c]pyridine-2-carboxamide]",> 2000,1 to 10
"COc1cc(-n2ncc3c(-c4cccc(-c5ccc(CNC[C@H]6C[C@@H](O)C6)c(OC)n5)c4Cl)cccc32)cc(OC)c1CN1CC(C)(O)C1 [Example 68, 1-(4-(4-(2-chloro-3-(5-((((cis-3-hydroxycyclobutyl)methyl)amino)methyl)-6-methoxypyridin-2-yl)phenyl)-1H-indazol-1-yl)-2,6-dimethoxybenzyl)-3-methylazetidin-3-ol]",< 200,< 1
"COc1cc(-n2ccc3c(-c4cccc(-c5ccc(CN6CC(C)(C(=O)O)C6)c(OC)n5)c4Cl)ccnc32)cc(OC)c1CNC[C@@H]1CCC(=O)N1 [Example 70, (S)-1-((6-(2-chloro-3-(1-(3,5-dimethoxy-4-((((5-oxopyrrolidin-2-yl)methyl)amino)methyl)phenyl)-1H-pyrrolo[2,3-b]pyridin-4-yl)phenyl)-2-methoxypyridin-3-yl)methyl)-3-methylazetidine-3-carboxylic acid]",> 2000,1 to 10
"COc1cc(-n2ncc3c(-c4cccc(-c5ccc(C6=NCCN6)c(OC)n5)c4Cl)cccc32)cc(OC)c1CNC[C@@H]1CCC(=O)N1 [Example 74, (S)-5-(((4-(4-(2-chloro-3-(5-(4,5-dihydro-1H-imidazol-2-yl)-6-methoxypyridin-2-yl)phenyl)-1H-indazol-1-yl)-2,6-dimethoxybenzyl)amino)methyl)pyrrolidin-2-one]",< 200,< 1
"COc1cc(-n2ncc3c(-c4cccc(-c5ccc(C6=NCCN6)c(OC)n5)c4Cl)cccc32)cc(OC)c1CNC[C@H]1C[C@@H](O)C1 [Example 77, cis-3-(((4-(4-(2-chloro-3-(5-(4,5-dihydro-1H-imidazol-2-yl)-6-methoxypyridin-2-yl)phenyl)-1H-indazol-1-yl)-2,6-dimethoxybenzyl)amino)methyl)cyclobutanol]",201 to 2000,< 1
"COc1cc(-n2ccc3c(-c4cccc(-c5ccc(CNC[C@H]6C[C@@H](O)C6)c(OC)n5)c4Cl)cccc32)cc(OC)c1CNC[C@@H]1CCC(=O)N1 [Example 82, (S)-5-(((4-(4-(2-chloro-3-(5-((((cis-3-hydroxycyclobutyl)methyl)amino)methyl)-6-methoxypyridin-2-yl)phenyl)-1H-indol-1-yl)-2,6-dimethoxybenzyl)amino)methyl)pyrrolidin-2-one]",201 to 2000,1 to 10
"COc1cc(-n2ccc3c(-c4cccc(-c5ccc(CN6CC(C)(O)C6)c(OC)n5)c4Cl)cccc32)cc(OC)c1CN1CC2(CNC(=O)C2)C1 [Example 84, 2-(4-(4-(2-chloro-3-(5-((3-hydroxy-3-methylazetidin-1-yl)methyl)-6-methoxypyridin-2-yl)phenyl)-1H-indol-1-yl)-2,6-dimethoxybenzyl)-2,6-diazaspiro[3.4]octan-7-one]",201 to 2000,< 1
"COc1cc(N2CCc3c(-c4cccc(-c5nc6c(s5)CNCC6)c4C)cccc32)cc(OC)c1CNC[C@@H]1CCC(=O)N1 [Example 85, (S)-5-(((2,6-dimethoxy-4-(4-(2-methyl-3-(4,5,6,7-tetrahydrothiazolo[5,4-c]pyridin-2-yl)phenyl)indolin-1-yl)benzyl)amino)methyl)pyrrolidin-2-one]",> 2000,10 to 100
"COc1cc(-n2ncc3c(-c4cccc(-c5ccc(CN6CC[C@@H](O)C6)c(OC)n5)c4Cl)cccc32)cc(OC)c1CNC[C@@H]1CCC(=O)N1 [Example 87, (S)-5-(((4-(4-(2-chloro-3-(5-(((R)-3-hydroxypyrrolidin-1-yl)methyl)-6-methoxypyridin-2-yl)phenyl)-1H-indazol-1-yl)-2,6-dimethoxybenzyl)amino)methyl) pyrrolidin-2-one]",> 2000,1 to 10
"COc1cc(-n2ncc3c(-c4cccc(-c5ccc(CNC[C@@H]6CCC(=O)N6)c(OC)n5)c4Cl)cccc32)cc(OC)c1CN1CC(C)(C(=O)NC2CC2)C1 [Example 88, (S)-1-(4-(4-(2-chloro-3-(6-methoxy-5-((((5-oxopyrrolidin-2-yl)methyl)amino)methyl)pyridin-2-yl)phenyl)-1H-indazol-1-yl)-2,6-dimethoxybenzyl)-N-cyclopropyl-3-methylazetidine-3-carboxamide]",201 to 2000,1 to 10
"COc1cc(-n2ncc3c(-c4cccc(-c5ccc(CN6CC7(CNC(=O)C7)C6)c(OC)n5)c4Cl)cccc32)cc(OC)c1CN1CC2(CNC(=O)C2)C1 [Example 90, 2-(4-(4-(2-chloro-3-(6-methoxy-5-((7-oxo-2,6-diazaspiro[3.4]octan-2-yl)methyl)pyridin-2-yl)phenyl)-1H-indazol-1-yl)-2,6-dimethoxybenzyl)-2,6-diazaspiro[3.4]octan-7-one]",201 to 2000,1 to 10
"COc1cc(-n2ncc3c(-c4cccc(-c5ccc(CN6CC(C)(C(=O)NC7CC7)C6)c(OC)n5)c4Cl)cccc32)cc(OC)c1CNC[C@@H]1CCC(=O)N1 [Example 92, (S)-1-((6-(2-chloro-3-(1-(3,5-dimethoxy-4-((((5-oxopyrrolidin-2-yl)methyl)amino)methyl)phenyl)-1H-indazol-4-yl)phenyl)-2-methoxypyridin-3-yl)methyl)-N-cyclopropyl-3-methylazetidine-3-carboxamide]",< 200,< 1
"COc1cc(-n2ncc3c(-c4cccc(-c5ccc(CN6CC(C)(C(=O)NC7CC7)C6)c(OC)n5)c4Cl)cccc32)cc(OC)c1CNC[C@H]1C[C@@H](O)C1 [Example 95, 1-((6-(2-chloro-3-(1-(4-((((cis-3-hydroxycyclobutyl)methyl)amino)methyl)-3,5-dimethoxyphenyl)-1H-indazol-4-yl)phenyl)-2-methoxypyridin-3-yl)methyl)-N-cyclopropyl-3-methylazetidine-3-carboxamide]",201 to 2000,1 to 10

# From US20240336601A1 (Chulalongkorn University, priority 2020, published 2024)
